From patent publication US20250381165A1, “Method of Use for Benzofuran Compounds” (Tampa Bay Research Institute, Inc., priority 2024, published 2025)

Legend:
[1] = test system: HEK293T; experiment: CellTiter-Glo cell viability, HEK293T; type: cell-based; conditions: Homo sapiens, HEK-293T
Description: BzFβ was then examined for its effect on the viability of several murine and human cell lines and primary murine splenocytes. The cytotoxicity of BzFβ was assessed using the CellTiter-Glo […] assay system according to manufacturer's instructions to determine BzFβ's effect on the viability of several murine and human cell lines and primary murine splenocytes.
DC2.4 cell line (Dr. Kenneth Rock, University of Massachusetts), RAW 264.7 cell line (American Type Culture Collection (ATCC), Manassas, VA; TIB 71), and IMG cell line (Millipore™, Merck KGaA, Burlington, MA; cat. no. SC-C134) were each cultured in complete Dulbecco's Modified Eagle Medium (cDMEM) containing […] glucose (Gibco™, Thermo Fisher Scientific Inc., Waltham, MA; cat. no. 10566-016) and supplemented with GlutaMAX, 50 U/mL penicillin and 50 µg/mL streptomycin (Gibco™; cat. no. 15070-063) and 10% heat inactivated fetal bovine serum (FBS) (R&D Systems, Inc., Minneapolis, MN; cat. no. […]
The cytotoxicity of BzFβ was assessed using the CellTiter-Glo cell […] viability assay system […] cat. no. […] CellTiter-Glo was added 1:1 in the media and the level of chemiluminescence was measured using luminescence at wavelengths of 200 nm to 700 nm through a photomultiplier on BioTek's Synergy HTX multimode microplate reader. […]

[2] = Detection of BzFβ in serum by HPLC; type: in vivo, C57BL/6NCrl mice
Description: Six- to ten-week-old male and female C57BL/6NCrl mice (Charles River Laboratories, Wilmington MA; cat. no. 027) were used for all animal studies. The mice were maintained in accord with the NIH Guide for the Care and Use of Laboratory Animals. Experimental procedures were performed in accord with research protocols approved by the Tampa Bay Research Institute's Institutional Animal Care and Use Committee. Mice were maintained in an INOVIVE individually ventilated cage system with 3 mice per cage containing 100% virgin wood pulp bedding (Harlan Teklad™, Harlan Sprague Dawley Inc., Indianapolis, IA; cat. no. 7099). Water and food (Harlan Teklad™, cat. no. 8640) were available ad libitum. The mice were maintained on a cycle of 12 h of light and 12 h of dark in an environment with a temperature of 74-76° […]. and 40-60% humidity. All cages underwent 40 air changes hourly in the negative pressure mode, in accordance with manufacturer's recommendations. Both the intake and exhaust air from the system were filtered through HEPA filters to maintain a clean environment. Stock solutions of BzFβ were solubilized in alkaline water (pH 10) and then sterile filtered through 0.22 µm syringe filters. BzFβ used for iv or im injections was diluted in 0.9% saline (normal saline). The stock solutions of the SIINFEKL peptide were prepared in 1× calcium/magnesium free Dulbecco's phosphate-buffered saline (DPBS; ThermoFisher Scientific, cat. no. 14190144).
After overnight fasting, six-to ten-week-old mice were gavaged with 1-2 mg of BzFβ solubilized in 200 μL alkaline water or were injected intramuscular (IM) or intravenous with 100 μg diluted in normal saline. After various times mice were anesthetized using 2.0% isoflurane with O2 at 1 L/min, and 200-500 μL of blood was collected in a microfuge tube containing 700 μL of 50 mM EDTA in DPBS as an anticoagulant. The blood samples were centrifuged at 4500×g for 20 min to separate the plasma from the cells. The resulting plasma (200 μL) was removed and extracted with 4 mL methanol. This mixture was vortexed for 30 s and centrifuged at 4000×g for 10 min at 4° C. The supernatant was collected and dried using a SpeedVac (SC210 Å) under a vacuum of 0.4 torr at 65° C. When dry, the sample was removed and resuspended in 100 μL methanol and then re-centrifuged to remove any precipitates. A 20 μL sample of this mixture was analyzed by HPLC.
BzFβ was detected in the serum using a Shimadzu high performance liquid chromatography (HPLC) system. The Shimadzu system consisted of two LC-20AR pumps, a SPD-M20A diode array UV-Vis detector, and a 20 μL injection loop onto a Phenomenex Luna […] Analytical PFP column 100 A (cat. no. OOF-4448-E0). Analysis and data collection were conducted using Shimadzu LabSolutions software. Samples ([…]) were injected onto the column and separated using a gradient of acetonitrile (ACN) and water as the mobile phase. The gradient started with 10% ACN and increased stepwise to 80% ACN for peak clarity. Buffer B was water adjusted to pH 2.5 using phosphoric acid. The column was kept at a constant temperature of 30° C. (Chai, et al., Comprehensive study of the intestinal absorption of four phenolic compounds after oral administration of Ananas comosus leaf extract in vivo and in vitro. Afr J Pharm Pharmacol. 2013 Jul. 15; 7(26):1781-92).
Following up on the prediction that BzFβ should be able to be absorbed through the GI tract and gain access to the systemic circulation, C57Bl/6crl mice were gavaged (po) with either 200 μL of alkaline water (negative control) or with 2 mg of BzFβ solubilized in 200 μL alkaline water. Fifteen minutes later, peripheral blood was obtained. The serum was extracted with methanol, lyophilized, and then examined by HPLC for the presence of BzFβ. […] BzFβ was then administered to another group of mice iv (100 μg), im ([…]), and po (1 mg). After 15 min, the serum was collected, extracted with methanol, and then analyzed by HPLC. […]

SMILES: O=C(O)/C=C/c1ccc2occc2c1 [BzFβ, (2E)-3-(1-benzofuran-5-yl)prop-2-enoic acid]
- IC50 [1]: 432 µM
- persistence in serum ([2]; 1, 2 and 3 h post im injection of 1 mg): still detectable
- stability in vivo compared with dipeptides ([2]; GI tract and bloodstream): much more stable in the GI tract and bloodstream
- presence in serum by HPLC ([2]; iv (100 μg), im (100 g), po (1 mg), 15 min): presence of the appropriate peak
- earliest detection in blood plasma ([2]; oral administration): 30 min
- latest detection in blood plasma ([2]; oral administration): 3 h
- presence in serum by HPLC ([2]; po 2 mg, fifteen minutes): revealed the presence of BzFβ
